According to patent publication US12578350B2, “System and method for coagulation and platelet function related data collection and analysis” (FloBio LLC, priority 2024, dated 2026):

System: fibrin accumulation
Test: Microfluidic whole blood flow assay over collagen/tissue factor reaction zone, fibrin signal, drug spiked in vitro
Format: cell-based, human
Details: blood sample treated with different doses, in relation to HBS control; 37° C. and 21° C.; FIGS. 17C-17D
From the text: The drug in question can be mixed with a small bolus of patient blood outside the device (in vitro), and the drug spiked blood then analyzed on the system. […] Fresh whole blood (used within minutes of venous draw), AF594 fibrinogen (fibrinogen from human plasma, Alexa FluorTM 594 conjugate) and platelet MCA2588A488 (mouse anti-human CD61, Alexa FluorTM 488 conjugate) can be added to the device 100 and the direct fluorescence signals can be analyzed. […] The result is the production of direct fluorescent signals in green (platelets) and red (fibrin) where the measured fluorescent intensity (FI) directly correlates with the accumulation of platelets and fibrin. The fluorescent signal intensity can be directly measured at each clot site over time to produce clot response curves for both fibrin and platelets. Fluorescence signal (intensity) can be extracted for each clot and plotted for each assay condition. Two signals are generated in the test as fluorescence intensity (FI) for fibrin and platelets accumulating in the region of interest on the device. […] The optimal time at which to select data for analyses is generally determined to be the time of the maximum rate of stable signal development, which typically corresponds to the half-max or T50 time point of the assay.

O=C(NC[C@H]1CN(c2ccc(N3CCOCC3=O)cc2)C(=O)O1)c1ccc(Cl)s1 [Rivaroxaban]
fibrin signal with increasing dose: decreases
